The series in a line: Human HepG2 cell viability assay in 384 well format. Type of series: toxicity, cell-based. More on the design: dose 125 nL, time 70.5 hour; cytotoxicity at 70.5 h: concentration not given beside the values. The following applies: HepG2 cells, read-out: Inhibition.

For `CN(C)C(=O)C1CCC2(CCN(C(=O)Nc3cccc(F)c3)CC2)O1` (centres undefined), the cytotoxicity at 70.5 h is -5.9%.

Consider `O=C(c1cccs1)N1CCC2(CC1)CCN(S(=O)(=O)C1CC1)CC2`, for which the cytotoxicity at 70.5 h was -11.7%.

As for `CS(=O)(=O)N1CCC2(CCN(C(=O)c3cccs3)CC2)CC1`, the cytotoxicity at 70.5 h was -8.9%.

As to `CN(C)C(=O)C1CCC2(CCN(C(=O)Nc3ccccc3)CC2)O1` (centres undefined), the cytotoxicity at 70.5 h was -8%.

Take `Cc1cccc(NC(=O)N2CCC3(CCC(C(=O)N(C)C)O3)CC2)c1` (centres undefined): the cytotoxicity at 70.5 h was -11.4%.

`COC1COC2(CCN(S(=O)(=O)c3ccc(F)cc3)CC2)C1` (centres undefined): the cytotoxicity at 70.5 h worked out at 17.1%.

As to `CN1CCC(CO[C@H]2CN(C(=O)c3cccn3C)[C@@H]3COC[C@H]23)CC1`, the cytotoxicity at 70.5 h is -11.6%.

Turning to `Cn1ccnc1C(=O)NC[C@H]1OC[C@@H]2CCN(S(C)(=O)=O)C[C@@H]21`, the cytotoxicity at 70.5 h was found to be 21.4%.

In the case of `CC(C)N1C(=O)C[C@H]2[C@@H]1CCN2C(=O)c1ccco1`, the cytotoxicity at 70.5 h worked out at 24.5%.

`Cc1ccsc1C(=O)N1CCc2ncc(Cn3cccn3)n2CC1`: the cytotoxicity at 70.5 h was -6.33%.

For the molecule `Cc1cccc(N2CC3(COCCN(c4ccncn4)C3)OCC2=O)c1` (centres undefined), the cytotoxicity at 70.5 h was found to be 0.341%.

As for `CC(=O)N1CCC2(CC1)C(=O)N(C)c1ccc(F)cc12`, the cytotoxicity at 70.5 h was -8.53%.

Regarding `O=C1COC2(COCCN(c3cnccn3)C2)CN1c1cccc(F)c1` (centres undefined), the cytotoxicity at 70.5 h is -6.69%.

In the case of `Cn1cc(CN2C[C@@H]3CCC[C@@H](OCc4cccnc4)[C@@H]3C2)cn1`, the cytotoxicity at 70.5 h worked out at 3.45%.

On to `CN1C(=O)CC(c2ccccc2)C12CCN(c1ncc(F)cn1)CC2` (centres undefined), for which the cytotoxicity at 70.5 h is -1.24%.

On to `CC(=O)N1CCc2[nH]nc(C(=O)N3CC=CC3)c2C1`, for which the cytotoxicity at 70.5 h was 34.9%.

`COC[C@@]12CCC[C@@H]1CN(C(=O)Cc1ccco1)C2`: the cytotoxicity at 70.5 h was -5.39%.

On to `Cc1cc(CN2CCC(C3CCN(CCc4ccccc4)C3)CC2)[nH]n1` (centres undefined), for which the cytotoxicity at 70.5 h was -0.374%.

Regarding `CCCn1nccc1C(=O)N1CCN(C(=O)C2CC2)[C@@H]2CS(=O)(=O)C[C@@H]21`, the cytotoxicity at 70.5 h is 11.1%.

`CC(C)N(CCO)C(=O)C1CCC(=O)N(Cc2ccc(Cl)cc2)C1` (centres undefined): the cytotoxicity at 70.5 h is -4.75%.

On to `Cc1cccc(N2CCC3(CCCN3Cc3cn(C)nc3C)CC2)n1`, for which the cytotoxicity at 70.5 h is -9.08%.

Regarding `CN(C)C(C(=O)N1CCC(CCO)CC1)c1ccccc1F` (centres undefined), the cytotoxicity at 70.5 h was 8.83%.

Regarding `CNC(=O)c1cn2cc(-c3cccc(Cl)c3)n(CC3CC3)c(=O)c2n1`, the cytotoxicity at 70.5 h was -8.05%.

As for `CN(CC1(CO)CCOCC1)[C@@H]1c2ccccc2C2(CCNCC2)[C@H]1O`, the cytotoxicity at 70.5 h worked out at 19%.

Take `CC(C)N1CCCN(c2nc(-c3cccnc3)nc3c2cnn3C)CC1`: the cytotoxicity at 70.5 h is 36.6%.

In the case of `Cc1noc(-c2ccnc(Oc3ccc(CN4CCCC4)cc3C)c2)n1`, the cytotoxicity at 70.5 h is -4.76%.

In the case of `COCCn1ccnc1CN1CCc2[nH]cnc2C1c1ccccn1` (centres undefined), the cytotoxicity at 70.5 h is -11.2%.

Turning to `Cc1ccc(NCCCNc2nccc(-c3cn(C)nc3C)n2)nc1`, the cytotoxicity at 70.5 h is 13.9%.

For the molecule `O=C1CCc2cc(NC(=O)N3CCCN(Cc4cccs4)CC3)ccc21`, the cytotoxicity at 70.5 h is -8.02%.

`CC(C)Cn1cncc1CNC1CCCNC1` (centres undefined): the cytotoxicity at 70.5 h is -4.78%.

With `Cc1cc(C)c2nc(C)cc(C(=O)N3CC(O)CO3)c2c1` (centres undefined), the cytotoxicity at 70.5 h came out at 17.6%.

For the molecule `NCCO[C@H]1C[C@@H](O)C12CCN(C(=O)COc1cccc(Cl)c1)CC2`, the cytotoxicity at 70.5 h is -5.89%.

Consider `CCN(CCn1cccn1)Cc1nc(-c2cccc(C)c2)oc1C`, for which the cytotoxicity at 70.5 h was -5.06%.

On to `CC(C)c1nc(CN(C)C(=O)CCc2ccc3c(c2)OCO3)cs1`, for which the cytotoxicity at 70.5 h is -9.76%.

Take `CCCN1CCCn2nc(CNS(=O)(=O)c3cccc(F)c3)cc2C1`: the cytotoxicity at 70.5 h is -5.1%.

With `CC(c1ccccn1)N(C)Cc1ccc(-n2cncn2)cc1` (centres undefined), the cytotoxicity at 70.5 h is -8.14%.

On to `CSCCC(=O)N1CCCN(c2ccccc2C)CC1`, for which the cytotoxicity at 70.5 h was 13.3%.

Regarding `Cn1ccnc1C1CCN(S(=O)(=O)c2ccc3[nH]c(=O)[nH]c3c2)CC1`, the cytotoxicity at 70.5 h stood at 15.5%.

In the case of `CCc1nc(C)sc1CN1CC[C@@](O)(C2CCOCC2)[C@H](C)C1`, the cytotoxicity at 70.5 h is -12.2%.

For the molecule `COc1cc(N2CCCC(c3ncc[nH]3)C2)ncn1` (centres undefined), the cytotoxicity at 70.5 h is -1.53%.

As for `Cc1ccc2nc(C)cc(C(=O)NCc3csc(N(C)C)n3)c2c1`, the cytotoxicity at 70.5 h was -2.75%.

Turning to `COc1cccc2ccc(CN3CCN(c4cccnc4)CC3)nc12`, the cytotoxicity at 70.5 h was found to be 7.51%.

Take `COC(=O)NCC(=O)N1CCCC(c2ncc[nH]2)C1` (centres undefined): the cytotoxicity at 70.5 h was -27.3%.

As for `Fc1cccc(C2(CNC3CCOC4(CCOCC4)C3)CCOCC2)c1` (centres undefined), the cytotoxicity at 70.5 h is -5.85%.

As for `Cc1nn(C)cc1CN(C)c1nccc(-c2cn(C)nc2C)n1`, the cytotoxicity at 70.5 h was -0.948%.

Consider `CCc1cc(N2CCCC(CC)(C(=O)O)C2)nc(N2CCOCC2)n1` (centres undefined), for which the cytotoxicity at 70.5 h came out at 13.3%.

As to `CNCc1cn(CC2CCN(CC(C)(C)CN3CCCC3)CC2)nn1`, the cytotoxicity at 70.5 h was -13.6%.

Turning to `CCCOC(=O)N1CCCC(c2nnc(CN3CCOCC3)n2C)C1` (centres undefined), the cytotoxicity at 70.5 h was determined as 2.16%.

`Cn1nccc1C(=O)N1CCN(C(=O)C2CCC2)[C@@H]2CS(=O)(=O)C[C@@H]21`: the cytotoxicity at 70.5 h was -6.57%.

As for `CSCc1noc(CNC(=O)C2CCN(C(=O)C3CCC3)CC2)n1`, the cytotoxicity at 70.5 h is -11.8%.

`COc1ccc(Cc2nc3c([nH]2)CC(C)(C)CNC3=O)c(OC)c1`: the cytotoxicity at 70.5 h was -9.23%.

`CCCOc1ccc(C(=O)N2CCN3CCNC(=O)C3C2)cc1Cl` (centres undefined): the cytotoxicity at 70.5 h is -8.43%.

For `Cn1cnc2cc(C(=O)N3CCN(CCO)[C@@H]4CS(=O)(=O)C[C@@H]43)ccc21`, the cytotoxicity at 70.5 h was -0.937%.

Consider `CCCN(Cc1ccccn1)Cc1ccccc1OC`, for which the cytotoxicity at 70.5 h was -6.2%.

As for `CC(=O)c1ccc(N2CCCC(CO)(CCc3ccccc3)C2)nc1` (centres undefined), the cytotoxicity at 70.5 h is -1.42%.

As for `NC(=O)CN1CCC(C(=O)NCc2ccc3c(c2)OCCCO3)CC1`, the cytotoxicity at 70.5 h was -8.05%.

In the case of `CC1(C)CN(S(=O)(=O)N2CCOCC2)CC1c1ccccc1` (centres undefined), the cytotoxicity at 70.5 h amounted to 1.45%.

On to `Cc1cc(C)nc(NCc2cc3n(n2)CCCN(C(=O)C2CCC2)C3)n1`, for which the cytotoxicity at 70.5 h was -1.4%.

For the molecule `COc1ncc(-c2nccn2-c2ccccc2CN2CCOCC2)cn1`, the cytotoxicity at 70.5 h is -7.32%.

As for `CN1CCC(N2CCC(CN(Cc3ccncc3)C3CCC3)CC2)CC1`, the cytotoxicity at 70.5 h is -4.29%.

With `Cc1cccc(C(Nc2nccc(C)n2)C2CC2)n1` (centres undefined), the cytotoxicity at 70.5 h was -4.46%.

As to `CC(C)c1cc(NCc2csc(N(C)C)n2)nc(N)n1`, the cytotoxicity at 70.5 h was 17.1%.

Turning to `Cc1ccccc1N1CCCN(C(=O)CCCn2ccnc2C)CC1`, the cytotoxicity at 70.5 h was -12.2%.

As to `Cc1nc(CN2CCCCC2CCc2cccs2)co1` (centres undefined), the cytotoxicity at 70.5 h is -9.07%.

As for `COc1ccc2c(c1)OCC(Cc1cc(N3CCCC3)cnn1)C2` (centres undefined), the cytotoxicity at 70.5 h amounted to 1.96%.

In the case of `COc1ccc(-n2cccn2)c(CN2CCC3(CCCN(C)C3=O)C2)c1` (centres undefined), the cytotoxicity at 70.5 h is -9.91%.

Consider `CCn1ncnc1CN1CCC(CNC(=O)c2ccccc2C#N)C1` (centres undefined), for which the cytotoxicity at 70.5 h is 0.027%.

Turning to `CN1C(=O)C2(CCN(C(=O)c3ccccc3)CC2)c2cc(F)ccc21`, the cytotoxicity at 70.5 h is -7.93%.

Take `CN1CCC2(CC1)C(=O)N(C)c1ccc(F)cc12`: the cytotoxicity at 70.5 h worked out at 27.9%.

On to `Cn1cnc2c(-c3cccnc3)nc(C3CCNCC3)cc21`, for which the cytotoxicity at 70.5 h was found to be 15.6%.

`COCCN1CCC12CCN(C(=O)c1ccc(C)nc1)C2` (centres undefined): the cytotoxicity at 70.5 h is -16.4%.

In the case of `CCOCc1nnc2n1CCN(Cc1c(C)noc1C)CC2`, the cytotoxicity at 70.5 h turned out to be 16.5%.

Turning to `Cc1cnc(N2CC3(CCN(S(=O)(=O)C4CC4)C3)C2)nc1`, the cytotoxicity at 70.5 h is -11.5%.

For the molecule `Fc1cccc(-c2nnn3c2COCC(CNCc2nccs2)C3)c1` (centres undefined), the cytotoxicity at 70.5 h is -11.8%.

For the molecule `Cc1nc(CO[C@H]2CN(C(=O)c3cccn3C)[C@@H]3COC[C@H]23)cs1`, the cytotoxicity at 70.5 h is -11.5%.

As to `CCN(C(=O)c1ccc2nnc(C3CCN(CCOC)C3)n2c1)C(C)C` (centres undefined), the cytotoxicity at 70.5 h was -13.6%.

In the case of `Cn1ccc(C(=O)N2C[C@@H]3CCN(c4cccnc4)C[C@@H]3C2)n1`, the cytotoxicity at 70.5 h is -4.89%.

Consider `O=C([C@H]1COC[C@H]2CN(C3CCOCC3)C[C@H]21)N1CCC(F)CC1`, for which the cytotoxicity at 70.5 h was -8.13%.

Regarding `c1csc(CNCC2COCc3c(-c4ccoc4)nnn3C2)n1` (centres undefined), the cytotoxicity at 70.5 h was -8.83%.

As for `O=C([C@@H]1CC[C@@H]2[C@@H](CCN2CCOCc2ccccc2)O1)N1CCCC1`, the cytotoxicity at 70.5 h is 13%.

Turning to `COC[C@@]12CCO[C@@H]1CCN(Cc1sccc1C)C2`, the cytotoxicity at 70.5 h is -10.6%.

As to `O=C(c1cnccn1)N1C[C@@H]2CCN(c3cnccn3)C[C@@H]2C1`, the cytotoxicity at 70.5 h was -7.66%.

`Cc1ccsc1C(=O)N1CCc2ncc(CN(C)C)n2CC1`: the cytotoxicity at 70.5 h is -7.39%.

With `Cc1cc(C(=O)N2CCc3ncc(CN4CCCC4)n3CC2)no1`, the cytotoxicity at 70.5 h was -11%.

As to `O=C(c1cscn1)N1CCc2ncc(CN3CCCC3)n2CC1`, the cytotoxicity at 70.5 h was -8.65%.

On to `COC1CCC[C@@H]2CN(Cc3csc(C)n3)C[C@H]12` (some centres undefined), for which the cytotoxicity at 70.5 h was -4.08%.

Regarding `Cn1ccnc1C(=O)NC[C@@H]1OC[C@H]2CN(CC3CC3)CC[C@H]21`, the cytotoxicity at 70.5 h was -9.31%.

Turning to `CN(C)C(=O)COC1COC2(CCN(CC3CC3)CC2)C1` (centres undefined), the cytotoxicity at 70.5 h was -5.8%.

For `O=C(Nc1ccccc1)c1ccc2c(c1)C1(CCCCC1)CN2`, the cytotoxicity at 70.5 h is -2.11%.

With `O=C(NCCc1cccs1)[C@]12COC[C@H]1CN(Cc1ccncc1)C2`, the cytotoxicity at 70.5 h is -9.54%.

Regarding `c1ccc(CN2CCC3(CC2)CC(Oc2cccnc2)C3)nc1`, the cytotoxicity at 70.5 h is -12.3%.

As for `COCCN1C[C@H]2CCC[C@@H](CNc3ncccn3)[C@H]2C1`, the cytotoxicity at 70.5 h was -10.7%.

With `Cc1ccc(CN2CC[C@H]3CO[C@H](CN4CCN(C)CC4)[C@H]3C2)o1`, the cytotoxicity at 70.5 h is -7.33%.

With `CCCN1CCC(c2nc3ccc(NCc4cccnc4)cn3n2)CC1`, the cytotoxicity at 70.5 h was -10.3%.
